According to ChEMBL document CHEMBL2073847, “Inhibition of the CYP3A4-mediated metabolism and P-glycoprotein-mediated transport of the HIV-1 protease inhibitor saquinavir by grapefruit juice components” (Br J Clin Pharmacol, 1999):

What was measured:
[1] = molecular target: T1, ATP-dependent translocase ABCB1 (Homo sapiens, UniProt P08183); assay: TP_TRANSPORTER: inhibition of Saquinavir transepithelial transport (basal to apical) in Caco-2 cells; type: functional, cell-based
[2] = molecular target: T1, ATP-dependent translocase ABCB1; assay: TP_TRANSPORTER: transepithelial transport (basal to apical) in Caco-2 cells; type: functional, cell-based

T1 sequence (P08183 whole entry): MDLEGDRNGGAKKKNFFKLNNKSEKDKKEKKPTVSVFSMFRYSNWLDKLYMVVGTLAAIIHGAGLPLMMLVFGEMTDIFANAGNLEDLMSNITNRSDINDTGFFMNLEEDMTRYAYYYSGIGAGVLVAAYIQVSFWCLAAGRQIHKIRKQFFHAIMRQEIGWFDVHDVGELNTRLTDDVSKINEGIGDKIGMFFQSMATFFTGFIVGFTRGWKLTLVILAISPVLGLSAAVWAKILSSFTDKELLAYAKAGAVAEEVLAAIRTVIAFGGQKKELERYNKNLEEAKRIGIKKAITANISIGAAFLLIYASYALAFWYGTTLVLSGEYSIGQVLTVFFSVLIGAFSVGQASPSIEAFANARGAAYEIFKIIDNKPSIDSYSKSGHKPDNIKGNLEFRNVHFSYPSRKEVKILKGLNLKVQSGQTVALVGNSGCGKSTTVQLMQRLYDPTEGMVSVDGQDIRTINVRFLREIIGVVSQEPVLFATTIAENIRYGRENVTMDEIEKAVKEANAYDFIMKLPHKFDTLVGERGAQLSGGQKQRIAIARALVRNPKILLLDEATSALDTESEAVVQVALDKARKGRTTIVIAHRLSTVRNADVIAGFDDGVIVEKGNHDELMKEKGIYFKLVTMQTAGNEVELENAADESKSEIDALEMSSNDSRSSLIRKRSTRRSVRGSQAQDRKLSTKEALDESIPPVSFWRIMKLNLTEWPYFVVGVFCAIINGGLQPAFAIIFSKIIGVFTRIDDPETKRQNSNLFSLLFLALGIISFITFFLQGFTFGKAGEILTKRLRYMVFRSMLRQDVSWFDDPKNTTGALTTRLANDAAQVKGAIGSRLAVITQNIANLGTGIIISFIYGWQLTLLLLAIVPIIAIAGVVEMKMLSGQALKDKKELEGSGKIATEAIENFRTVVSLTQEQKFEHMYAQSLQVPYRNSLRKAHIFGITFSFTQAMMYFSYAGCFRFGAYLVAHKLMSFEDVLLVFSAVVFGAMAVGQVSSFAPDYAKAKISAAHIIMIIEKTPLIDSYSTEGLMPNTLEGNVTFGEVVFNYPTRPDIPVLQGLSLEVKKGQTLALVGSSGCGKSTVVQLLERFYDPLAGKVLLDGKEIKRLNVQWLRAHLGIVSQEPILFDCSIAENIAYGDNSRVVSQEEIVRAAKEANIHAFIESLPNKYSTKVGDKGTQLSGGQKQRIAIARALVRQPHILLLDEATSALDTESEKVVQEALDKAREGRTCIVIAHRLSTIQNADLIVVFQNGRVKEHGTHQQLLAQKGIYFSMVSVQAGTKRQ

SMILES	Activity [1]	Activity [2]
C[C@@H]1O[C@@H](O[C@H]2[C@H](Oc3cc(O)c4c(c3)O[C@H](c3ccc(O)cc3)CC4=O)O[C@H](CO)[C@@H](O)[C@@H]2O)[C@H](O)[C@H](O)[C@H]1O [NARINGIN]	inhibitor [+]	
CC(C)=CCC/C(C)=C/COc1c2ccoc2cc2oc(=O)ccc12 [BERGAMOTTIN]	is not an inhibitor [-]	
C/C(=C\COc1c2ccoc2cc2oc(=O)ccc12)CC[C@@H](O)C(C)(C)O	is not an inhibitor [-]	
O=C1C[C@@H](c2ccc(O)cc2)Oc2cc(O)cc(O)c21 [NARINGENIN]	inhibitor [+]	
CC(C)(C)NC(=O)[C@@H]1C[C@@H]2CCCC[C@@H]2CN1C[C@@H](O)[C@H](Cc1ccccc1)NC(=O)[C@H](CC(N)=O)NC(=O)c1ccc2ccccc2n1 [SAQUINAVIR]		substrate [+]
